Measurements as given in patent publication US20090105301A1, “9A-SUBSTITUTED AZALIDES FOR THE TREATMENT OF MALARIA” (priority 2006, published 2009).
Converted amounts (≈) assume the structure as drawn. Where a name gives a salt, the structure may show the parent alone. Read-outs that look alike come from different tables or passages of the source.

What was measured:
Assay type in all cases: cell-based, Plasmodium falciparum
[1] = system: P. falciparum D6 (CDC/Sierra Leone I, D-6); test: In vitro screening protocol I, [3H]-hypoxanthine incorporation, D6; settings: for IC50: Plasmodium falciparum
Text: (§1) Agents Chemother. 27 (4) (1985) 525-530). The system was limited to the assessment of the intrinsic activity against the erythrocytic asexual life cycle (blood schizontocides). Two Plasmodium falciparum clones from CDC/Indochina III (W-2) and CDC/Sierra Leone I (D-6) (Oduola A M, Weatherly N F, Bowdre J H, Desjardins R E. Plasmodium falciparum: cloning by single-erythrocyte micromanipulation and heterogeneity in vitro. Exp Parasitol. 66 (1) (1988) 86-95) were used for all assays. TM91C235, a multiple drug resistant isolate from Thailand (Antimicrob. Agents Chemother. 46 (8) (2002) 2627 and Antimicrob. Agents Chemother. 43 (3) (1999) 598-602), was used for the prescreening assay. W-2 is resistant to chloroquine, quinine, and pyrimethamine and susceptible to mefloquine. D-6 tends to be more resistant to mefloquine and susceptible to chloroquine, quinine, and pyrimethamine. All documents cited in this paragraph are incorporated by reference in their entirety.
(§2) All parasites were maintained in continuous long term cultures in RPMI-1640 medium supplemented with 6% washed human A positive (A+)(erythrocytes, 25 mM Hepes, […], and 10% heat inactivated A+ human plasma or ALBUMAX® (lipid-rich bovine serum albumin; Invitrogen, Carlsbad, Calif.). All cultures and assays were conducted at 37° C. under an atmosphere of 5% CO2 and 5% O2, with a balance of N2.
(§3) The prescreening assay uses TM91C235 diluted at a 0.4% parasitemia in a 1% hematocrit in folic acid free and p-aminobenzoic acid free media RPMI-1640 and ALBUMAX®. […] The compound is further diluted in folate free (FF) culture medium with ALBUMAX® for the first initial starting concentration. The rest of the stock drug solution was kept at −70° C. The isolate was preexposed, in duplicate, at three concentrations (25,000 ng/ml, 2,500 ng/ml, and […]) of the test compound for 48 hr in a 96-well microtiter plate (MTP) using the BIOMEK® 2000 automated laboratory workstation. Each MTP contains chloroquine as control to assess the relative activity of the compound and to monitor the response of TM91C235.
(§4) After the preincubation, [^3H]-hypoxanthine was added to each well of the MTP. (The assay relies on the incorporation of radiolabeled hypoxanthine by the parasites, which indicates reproduction, and inhibition of isotope incorporation was attributed to activity of known or candidate antimalarial drugs). After 72 hours of total incubation time, the MTP were frozen to lyse the erythrocytes and parasites. The parasite DNA was recovered by harvesting the lysate onto glass-fiber filter plates using a Packard FilterMate™ Cell Harvester. The radioactivity was counted on a Packard TopCount™ microplate scintillation counter.
(§5) The serial dilution assay was conducted using the same assay conditions and stock solution of the compound used for the preliminary screen, described above. Both the D-6 and the W-2 clones were used. The compounds were diluted two-fold over 11 different concentration ranges with a starting concentration that was based on the preliminary screen. For each drug, the concentration response profile was determined and 50% inhibitory concentrations (IC50) were determined by using a non-linear, logistic dose response analysis program. […] For each assay, the IC50 for each clone was determined against the known antimalarials chloroquine and mefloquine. These control values established the compound's relative parasite susceptibility profile compared to known antimalarials. […]

P. falciparum TM91C235 = test: In vitro screening protocol I, [3H]-hypoxanthine incorporation, TM91C235; settings: for IC50: Plasmodium falciparum, read-out: IC50 TM91C235
Text: as §1, §2, §3, §4, §5

[2] = system: P. falciparum W2 (CDC/Indochina III, W-2); test: In vitro screening protocol I, [3H]-hypoxanthine incorporation, W2; settings: for IC50: Plasmodium falciparum
Text: as §1, §2, §3, §4, §5

[3] = In vitro screening protocol I, P. falciparum D6, read-out: IC50 D6
[4] = In vitro screening protocol I, P. falciparum TM91C235
[5] = In vitro screening protocol I, P. falciparum W2, read-out: IC50 W2

IC50 [1, 3]	IC50 (P. falciparum TM91C235; [4])	IC50 [2, 5]	Compound	other results
0.2 to 1 µg/mL (≈ 0.223 to 1.12 µM)	0.2 to 1 µg/mL (≈ 0.223 to 1.12 µM)	0.2 to 1 µg/mL (≈ 0.223 to 1.12 µM)	CC[C@H]1OC(=O)[C@H](C)[C@@H](O[C@H]2C[C@@](C)(OC)[C@@H](O)[C@H](C)O2)[C@H](C)[C@@H](O[C@@H]2O[C@H](C)C[C@H](N(C)C)[C@H]2O)[C@](C)(O)C[C@@H](C)CN(CCC(=O)NCc2ccccc2)[C@H](C)[C@@H](O)[C@]1(C)O [Example 38]	–
0.1 to 0.2 µg/mL (≈ 0.107 to 0.213 µM)	< 0.1 µg/mL	< 0.1 µg/mL	CC[C@H]1OC(=O)[C@H](C)[C@@H](O[C@H]2C[C@@](C)(OC)[C@@H](O)[C@H](C)O2)[C@H](C)[C@@H](O[C@@H]2O[C@H](C)C[C@H](N(C)C)[C@H]2O)[C@](C)(O)C[C@@H](C)CN(CCC(=O)NCCCCc2ccccc2)[C@H](C)[C@@H](O)[C@]1(C)O [Example 41]	–
0.2 to 1 µg/mL (≈ 0.22 to 1.1 µM)	0.2 to 1 µg/mL (≈ 0.22 to 1.1 µM)	0.2 to 1 µg/mL (≈ 0.22 to 1.1 µM)	CC[C@H]1OC(=O)[C@H](C)[C@@H](O[C@H]2C[C@@](C)(OC)[C@@H](O)[C@H](C)O2)[C@H](C)[C@@H](O[C@@H]2O[C@H](C)C[C@H](N(C)C)[C@H]2O)[C@](C)(O)C[C@@H](C)CN(CCC(=O)NCCc2ccccc2)[C@H](C)[C@@H](O)[C@]1(C)O [Example 39]	–

Second part, the compound before the results:

Compound	IC50 [1, 3]	IC50 (P. falciparum TM91C235; [4])	IC50 [2, 5]	other results
CC[C@H]1OC(=O)[C@H](C)[C@@H](O[C@H]2C[C@@](C)(OC)[C@@H](O)[C@H](C)O2)[C@H](C)[C@@H](O[C@@H]2O[C@H](C)C[C@H](N(C)C)[C@H]2O)[C@](C)(O)C[C@@H](C)CN(CCCN(C)Cc2cccc3ccccc23)[C@H](C)[C@@H](O)[C@]1(C)O [Example 17, 9a-{3-[Methyl-(naphtalen-1-yl-methyl)amino]propyl}-9-deoxo-9-dihydro-9a-aza-9a-homoerythromycin A]	0.1 to 0.2 µg/mL (≈ 0.106 to 0.211 µM)	< 0.1 µg/mL	< 0.1 µg/mL	–
CC[C@H]1OC(=O)[C@H](C)[C@@H](O[C@H]2C[C@@](C)(OC)[C@@H](O)[C@H](C)O2)[C@H](C)[C@@H](O[C@@H]2O[C@H](C)C[C@H](N(C)C)[C@H]2O)[C@](C)(O)C[C@@H](C)CN(CCCNCc2cccnc2)[C@H](C)[C@@H](O)[C@]1(C)O [Example 12, 9a-{3-[(Pyridine-3-yl-methyl)amino]propyl}-9-deoxo-9-dihydro-9a-aza-9a-homoerythromycin A]	–	–	–	IC50 D6 ([1]; In vitro screening protocol I, P. falciparum D6): C (200 < X ≦ 1000); IC50 TM91C235 (P. falciparum TM91C235; [4]): C (200 < X ≦ 1000); IC50 W2 ([2]; In vitro screening protocol I, P. falciparum W2): C (200 < X ≦ 1000)
CC[C@H]1OC(=O)[C@H](C)[C@@H](O[C@H]2C[C@@](C)(OC)[C@@H](O)[C@H](C)O2)[C@H](C)[C@@H](O[C@@H]2O[C@H](C)C[C@H](N(C)C)[C@H]2O)[C@](C)(O)C[C@@H](C)CN(CCCNCCCc2ccccc2)[C@H](C)[C@@H](O)[C@]1(C)O [Example 19, 9a-{3-[(3-Phenylpropyl)amino]propyl}-9-deoxo-9-dihydro-9a-aza-9a-homoerythromycin A]	0.1 to 0.2 µg/mL (≈ 0.11 to 0.22 µM)	< 0.1 µg/mL	< 0.1 µg/mL	–
CC[C@H]1OC(=O)[C@H](C)[C@@H](O[C@H]2C[C@@](C)(OC)[C@@H](O)[C@H](C)O2)[C@H](C)[C@@H](O[C@@H]2O[C@H](C)C[C@H](N(C)C)[C@H]2O)[C@](C)(O)C[C@@H](C)CN(CCCNC(=O)CCCCc2ccccc2)[C@H](C)[C@@H](O)[C@]1(C)O [Example 31, 9a-{3-[(5-Phenylpentanoyl)amino]propyl}-9a-aza-9-deoxo-9-dihydro-9a-homoerythromycin A Formiate Salt]	0.2 to 1 µg/mL	< 0.1 µg/mL	0.1 to 0.2 µg/mL	–
CC[C@H]1OC(=O)[C@H](C)[C@@H](O[C@H]2C[C@@](C)(OC)[C@@H](O)[C@H](C)O2)[C@H](C)[C@@H](O[C@@H]2O[C@H](C)C[C@H](N(C)C)[C@H]2O)[C@](C)(O)C[C@@H](C)CN(CCCNCc2ccccc2)[C@H](C)[C@@H](O)[C@]1(C)O [Example 52, 9a-{3-[(Phenylmethyl)amino]propyl}-9-deoxo-9-dihydro-9a-aza-9a-homoerythromycin A]	–	–	–	IC50 ([1]; D6, read-out: IC50 D6): 0.2 to 1 µg/mL (≈ 0.227 to 1.13 µM); IC50 (P. falciparum TM91C235): < 0.1 µg/mL; IC50 ([2]; W2, read-out: IC50 W2): < 0.1 µg/mL
